pIC50: −log10 of the molar value.
These compounds were tested against T1, recombinant human 15-PGDH (Homo sapiens, UniProt P15428) (assay: 15-PGDH enzyme inhibition test). Conditions: 4 nM recombinant human 15-PGDH, 30 μM PGE2, 1 mM NAD+, 60 minutes after starting the reaction; read-out: IC50 Value.
T1 construct: purchased R&D Systems
T1 sequence (P15428 1-266): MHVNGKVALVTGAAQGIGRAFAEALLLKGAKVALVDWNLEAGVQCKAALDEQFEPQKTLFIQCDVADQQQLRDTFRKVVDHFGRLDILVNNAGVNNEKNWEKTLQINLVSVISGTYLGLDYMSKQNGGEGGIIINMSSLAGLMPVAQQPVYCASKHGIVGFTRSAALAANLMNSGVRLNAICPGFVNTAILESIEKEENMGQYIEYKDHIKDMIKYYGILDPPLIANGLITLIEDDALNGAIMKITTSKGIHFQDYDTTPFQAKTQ
Format: biochemical
Method: 15-PGDH Enzyme Inhibition Test
A test compound and 4 nM recombinant human 15-PGDH (R&D Systems) were added, in 50 mM Tris-HCl (pH 8.0) containing 0.01% TWEEN 20 (Sigma) and 0.01% bovine gamma globulin (Sigma), to a 384-well Flat Bottom Black plate (Corning, 3820), and the resultant was allowed to stand still at room temperature for 12 minutes, and 30 μM PGE2 (Cayman Chemical) and 1 mM NAD+ (Sigma) were added thereto to start the reaction. 60 minutes after starting the reaction, measurement was performed using Synergy 2 (BioTeck) at an excitation wavelength of 340 nm and a fluorescence wavelength of 440 nm. Assuming that a fluorescence signal obtained with an assay buffer added instead of the test compound and NAD+ was 100% and that a signal obtained with NAD+ added was 0%, a concentration corresponding to 50% inhibition plotted on a concentration-reaction curve of the test compound was defined as an IC50 value. Incidentally, in the following tables, an IC50 value smaller than 10 nM was shown as +++, an IC50 value equal to or larger than 10 nM and smaller than 100 nM was shown as ++, and an IC50 value equal to or larger than 100 nM was shown as +.

Structure (SMILES)	pIC50
CCOCCN1Cc2cc(N3CCOc4cc(C(=O)N5CCC(F)(F)CC5)cnc43)ncc2C1=O [Example 1-51]	7.00 to 8.00
O=C(c1cnc2c(c1)OCCN2c1ccc2ccncc2c1)N1CCCCC1 [Example 1-260]	> 8.00
Cn1cnc2cc(N3CCOc4cc(C(=O)N5CCCCC5)cnc43)cnc2c1=O [Example 1-38]	> 8.00
CN1Cc2cc(N3CCOc4cc(C(=O)C5CCCCC5)cnc43)ccc2C1=O [Example 1-134]	> 8.00
COCn1nc2cc(N3CCCc4cc(C(=O)N5CCC(F)(F)CC5)cnc43)ccn2c1=O [Example 1-76]	> 8.00
O=C(c1cnc2c(c1)OCCN2c1ccc2c(c1)CN(C1CC1)C2=O)N1CCC(F)(F)CC1 [Example 1-227]	> 8.00
CN1Cc2ccc(N3CCOc4cc(C(=O)N5CCCCC5)cnc43)cc2C1=O [Example 1-225]	7.00 to 8.00
CCOC(=O)c1ccc(N2CCOc3cc(C(=O)N4CCCCC4)cnc32)s1 [Example 1-264]	> 8.00
O=C(c1cnc2c(c1)OCCN2c1ccn2cnnc2c1)N1CCCCC1 [Example 1-105]	> 8.00
Cn1nc2cc(N3CCOc4cc(C(=O)N5CCCC6CC65)cnc43)ccn2c1=O (single isomer, unassigned) [23-1 Isomer A, 7-(7-(2-Azabicyclo[4,1,0]heptane-2-carbonyl)-2,3-dihydro-4H-pyrido[3,2-b][1,4]oxazin-4-yl)-2-methyl-[1,2,4]triazolo[4,3-a]pyridin-3(2H)-one]	> 8.00
C[C@H]1COc2cc(C(=O)N3CCCCC3)ccc2N(c2ccn3c(=O)n(C)nc3c2)C1 [Example 1-95]	> 8.00
NC(=O)c1ccc(N2CCOc3cc(C(=O)N4CCCCC4)ccc32)cn1 [Example 6-3]	> 8.00
O=C(c1cnc2c(c1)OCCN2c1ccccc1F)N1CCCCC1 [Example 1-238]	< 7.00
CN1Cc2cc(N3CCOc4cc(C(=O)N5CCC(F)(F)CC5)cnc43)cnc2C1=O [Example 1-45]	> 8.00
O=C(c1cnc2c(c1)OCCN2c1ccc2c(=O)[nH]ccc2c1)N1CCC(F)(F)CC1 [Example 1-128]	> 8.00
CCOCCn1nc2cc(N3CCOc4cc(C(=O)N5CCC(F)(F)CC5)cnc43)ccn2c1=O [Example 1-48]	> 8.00
CS(=O)(=O)Cc1ccc(N2CCOc3cc(C(=O)N4CCCCC4)ccc32)cc1 [Example 1-162]	> 8.00
O=C(O)c1ccc(N2CCOc3cc(C(=O)N4CCC(F)(F)CC4)cnc32)cc1 [Example 4-5]	> 8.00
O=C(O)c1cccc(N2CCCc3cc(C(=O)N4CCCCC4)cnc32)c1 [Example 4-20]	7.00 to 8.00
CN1C(=O)C(C)(C)c2ccc(N3CCOc4cc(C(=O)N5CCCCC5)cnc43)cc21 [Example 1-248]	< 7.00
O=C(c1cnc2c(c1)CCCN2c1ccn2c(=O)n(CC3COC3)nc2c1)N1CCCCC1 [Example 1-58]	> 8.00

Structure (SMILES)	pIC50
Cn1nc2cc(N3CCCc4cc(C(=O)N5CCCCC5)ccc43)ccn2c1=O [Example 1-130]	> 8.00
O=C(c1cnc2c(c1)OCCN2c1ccc(Br)cc1)N1CCCCC1 [Example 1-243]	7.00 to 8.00
CNC(=O)c1ccc(N2CCCc3cc(C(=O)N4CCCCC4)cnc32)cc1F [Example 1-59]	> 8.00
Cn1nc2c(Cl)c(N3CCOc4cc(C(=O)N5CCCCC5)cnc43)ccn2c1=O [Example 1-29]	> 8.00
COCCn1nc2cc(N3CCOc4cc(C(=O)N5CCC(F)(F)CC5)cnc43)ccn2c1=O [Example 1-47]	> 8.00
CN(C)C(=O)Cn1nc2cc(N3CCOc4cc(C(=O)N5CCCCC5)cnc43)ccn2c1=O [Example 6-8]	> 8.00
Cn1nnnc1-c1ccc(N2CCOc3cc(C(=O)N4CCCCC4)cnc32)cc1 [Example 1-251]	> 8.00
CCCCN1Cc2cc(N3CCOc4cc(C(=O)N5CCCCC5)cnc43)ccc2C1=O [Example 1-223]	> 8.00
O=C(O)C1CCC(N2CCOc3cc(C(=O)N4CCCCC4)ccc32)CC1 (stereo not drawn) [Example 4-13]	7.00 to 8.00
COC(=O)c1cccc(N2CCc3cc(C(=O)N4CCCCC4)ccc32)c1 [Example 1-139]	> 8.00
COCCN1Cc2cc(N3CCCc4cc(C(=O)N5CCCCC5)cnc43)ncc2C1=O [Example 1-72]	7.00 to 8.00
COc1cc2c(cc1C(=O)N1CCCCC1)OCCN2c1ccc(C(=O)O)cc1 [Example 2-1, 4-(6-Methoxy-7-(piperidine-1-carbonyl)-2,3-dihydro-4H-benzo[b] [1,4]oxazin-4-yl)benzoic Acid]	7.00 to 8.00
O=C(O)c1ccc(N2CCOc3nc(C(=O)N4CCCCC4)ccc32)cc1 [Example 4-4]	> 8.00
O=C(O)c1ccccc1N1CCCc2cc(C(=O)N3CCCCC3)cnc21 [Example 1-212]	7.00 to 8.00
CCOCn1nc2cc(N3CCOc4cc(C(=O)N5CCCCC5)cnc43)ccn2c1=O [Example 1-268]	> 8.00
O=C(c1cnc2c(c1)CCCN2c1cnc2c(=O)[nH]cnc2c1)N1CCC(F)(F)CC1 [Example 1-192]	> 8.00
CN1CCN(c2ccccc2)c2ncc(C(=O)N3CCCCC3)cc21 [Example 1-228]	< 7.00
NC(=O)Cn1nc2cc(N3CCOc4cc(C(=O)N5CCCCC5)cnc43)ccn2c1=O [Example 6-6]	> 8.00
COCn1nc2cc(N3CCCOc4cc(C(=O)N5CCCCC5)cnc43)ccn2c1=O [Example 1-52]	> 8.00
NC(=O)c1ccc(N2CCCc3cc(C(=O)N4CCCCC4)cnc32)cc1 [Example 6-14]	> 8.00
O=C(O)c1ccc(N2CCOc3cc(C(=O)N4CCCCC4)ccc32)cn1 [Example 2-22]	> 8.00

Now from value to compound:

pIC50	Structure (SMILES)
> 8.00	CC(C)(O)c1ccc(N2CCOc3cc(C(=O)N4CCCCC4)ccc32)cc1 [Example 10-1, (4-(4-(2-Hydroxypropan-2-yl)phenyl)-3,4-dihydro-2H-benzo[b][1,4]oxazin-7-yl)(piperidin-1-yl)methanone]
> 8.00	CN1Cc2cc(N3CCOc4cc(C(=O)N5CCC[C@H](C(F)F)C5)cnc43)ccc2C1=O [Example 8-206]
> 8.00	Cn1nc2cc(N3CCCc4cc(C(=O)N5CCC[C@H](F)C5)cnc43)ccn2c1=O [Example 8-138]
> 8.00	COC(=O)c1nc2ccc(N3CCOc4cc(C(=O)N5CCCCC5)cnc43)cc2s1 [Example 11-3]
> 8.00	CC1CN(C(=O)c2cnc3c(c2)OCCN3c2ccn3c(=O)n(C)nc3c2)CCC1(F)F (stereo not drawn) [Example 8-47]
> 8.00	O=C(c1cnc2c(c1)OCCN2c1ccc2c(c1)CN(CO)C2=O)N1CCC(F)(F)CC1 [Example 25-1, 5-(7-(4,4-Difluoropiperidine-1-carbonyl)-2,3-dihydro-4H-pyrido[3,2-b]oxazin-4-yl)-2-(hydroxymethyl)isoindolin-1-one]
> 8.00	Cn1nc2cc(N3CCOc4cc(C(=O)N5CC6CCC6C5)cnc43)ccn2c1=O (stereo not drawn) [Example 8-97]
> 8.00	Cn1nc2cc(N3CCCc4cc(C(=O)N5CCC[C@H](C(F)(F)F)C5)cnc43)ccn2c1=O [Example 8-146]
> 8.00	CCN1Cc2cc(N3CCCc4cc(C(=O)N5CCc6ccccc6C5)cnc43)ccc2C1=O [Example 8-76]
> 8.00	Cn1nc2cc(N3CCCc4cc([S+]([O-])C5CCCCC5)cnc43)ccn2c1=O (stereo not drawn) [Example 7-7]
< 7.00	CCn1nc2cc(N3CCOc4cc(C(=O)N5CCCCC56COC6)cnc43)ccn2c1=O [Example 8-218]
> 8.00	Cn1nc2cc(N3CCOc4cc(C(=O)N5CCCC6(CCC6)C5)cnc43)ccn2c1=O [Example 8-67]
> 8.00	CN1Cc2cc(N3CCOc4cc(C(=O)N5Cc6ccccc6C5)cnc43)ccc2C1=O [Example 8-193]
> 8.00	CCOc1noc2cc(N3CCOc4cc(C(=O)N5CCC(F)(F)CC5)cnc43)ccc12 [Example 8-216]
> 8.00	Cn1nc2cc(N3CCCc4cc(C(=O)N5CCCC5)cnc43)ccn2c1=O [Example 8-123]
> 8.00	CCN1Cc2cc(N3CCCc4cc(C(=O)N5CCC[C@H](C(F)F)C5)cnc43)ccc2C1=O [Example 8-94]
> 8.00	Cn1nc2cc(N3CCOc4cc(C(=O)N5CCC[C@@H](CF)C5)cnc43)ccn2c1=O [Example 8-66]
> 8.00	COCCNC(=O)c1cnc2c(c1)OCCN2c1ccn2c(=O)n(C)nc2c1 [Example 8-105]
> 8.00	Cn1nc2cc(N3CCNc4cc(C(=O)N5CCC(F)(F)CC5)cnc43)ccn2c1=O [Example 28-2]
> 8.00	Cn1nc2cc(N3CCOc4cc(C(=O)N5CCC[C@H](O)C5)cnc43)ccn2c1=O [Example 8-38]
> 8.00	C[C@H]1CCCN(C(=O)c2cnc3c(c2)OCCCN3c2ccn3c(=O)n(C)nc3c2)C1 [Example 8-61]
> 8.00	Cn1nc2cc(N3CCOc4cc(C(=O)N5C[C@@H]6CC[C@@H](C6)C5)cnc43)ccn2c1=O [Example 8-39]
> 8.00	Cn1nc2cc(N3CCOc4cc(C(=O)N5CCCC6(CC6)C5)cnc43)ccn2c1=O [Example 8-42]
> 8.00	COCn1nc2cc(N3CCCc4cc(C(=O)N5CC[C@H](C)C5)cnc43)ccn2c1=O [Example 8-120]
